In patent publication US11111247B2, “Pyrazolopyrimidine compounds and uses thereof” (Incyte Corporation, priority 2018, dated 2021) one finds IC50 data, which are given here for six compounds.

One assay concerns the target FGFR3 (UP) (Homo sapiens (Human), UniProt P22607). The experiment in a line: FGFR Enzymatic Assay, FGFR3 un-phosphorylated.
A further assay deals with ALK2 (aa 147-end) (Homo sapiens (Human), UniProt Q04771). In words: ALK2 HTRF Assay. It is filed as biochemical.
For a further assay, the target named is FGFR2 (UP) (Homo sapiens (Human), UniProt P21802). The experiment in a line: FGFR Enzymatic Assay, FGFR2 un-phosphorylated.
Sequence of FGFR2 (UP) (P21802 22-821): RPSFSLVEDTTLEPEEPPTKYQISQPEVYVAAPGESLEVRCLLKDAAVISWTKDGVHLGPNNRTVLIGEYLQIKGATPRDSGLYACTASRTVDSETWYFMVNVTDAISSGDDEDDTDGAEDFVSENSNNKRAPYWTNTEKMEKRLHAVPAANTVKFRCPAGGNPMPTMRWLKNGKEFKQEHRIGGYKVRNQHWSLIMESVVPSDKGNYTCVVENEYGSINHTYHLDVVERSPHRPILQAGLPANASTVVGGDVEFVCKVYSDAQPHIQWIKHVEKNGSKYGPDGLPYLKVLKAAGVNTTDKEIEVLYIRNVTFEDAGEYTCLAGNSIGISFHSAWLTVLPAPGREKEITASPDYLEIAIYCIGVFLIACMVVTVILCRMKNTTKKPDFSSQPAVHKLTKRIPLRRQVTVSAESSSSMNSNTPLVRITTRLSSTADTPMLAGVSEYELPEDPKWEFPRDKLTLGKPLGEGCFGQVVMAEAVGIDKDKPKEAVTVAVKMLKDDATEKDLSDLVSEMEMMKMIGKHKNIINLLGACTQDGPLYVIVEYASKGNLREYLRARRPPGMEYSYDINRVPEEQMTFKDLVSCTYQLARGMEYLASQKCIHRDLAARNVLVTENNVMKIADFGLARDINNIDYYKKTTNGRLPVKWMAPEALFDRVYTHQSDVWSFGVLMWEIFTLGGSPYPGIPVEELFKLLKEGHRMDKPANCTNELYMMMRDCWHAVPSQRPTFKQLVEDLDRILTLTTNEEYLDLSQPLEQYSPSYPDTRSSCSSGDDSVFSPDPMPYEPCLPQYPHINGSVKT
For another assay, the target named is ALK2 (Homo sapiens (Human), UniProt Q04771). In words: ALK2 Cellular Assay (phospho SMAD1 HTRF, BMP-7 stimulated HeLa cells). It is filed as cell-based. Conditions: read-out: ALK2 Cellular Assay PSMAD. In a few lines: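 HeLa cells pre-treated with compound (highest final 3 μM) for 60 min at 37° C, then stimulated with 200 ng/ml BMP-7 for 30 min. Phospho-SMAD1 (S463/S465) quantified by HTRF after overnight room-temperature incubation.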
Sequence of ALK2 (Q04771 21-509): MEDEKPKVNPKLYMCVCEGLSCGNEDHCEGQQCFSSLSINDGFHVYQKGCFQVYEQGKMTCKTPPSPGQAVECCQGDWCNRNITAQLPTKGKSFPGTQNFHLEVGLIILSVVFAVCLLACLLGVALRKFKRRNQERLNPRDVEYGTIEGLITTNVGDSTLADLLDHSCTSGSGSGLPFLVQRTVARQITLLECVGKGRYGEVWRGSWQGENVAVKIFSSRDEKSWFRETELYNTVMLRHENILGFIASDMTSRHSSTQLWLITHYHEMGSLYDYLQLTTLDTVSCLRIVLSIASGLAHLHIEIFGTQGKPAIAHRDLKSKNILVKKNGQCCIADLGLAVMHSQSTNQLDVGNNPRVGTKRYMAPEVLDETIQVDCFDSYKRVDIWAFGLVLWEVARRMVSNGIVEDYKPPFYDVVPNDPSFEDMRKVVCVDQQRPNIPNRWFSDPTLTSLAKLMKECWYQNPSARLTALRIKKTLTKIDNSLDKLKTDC
For orientation: Time-resolved FRET reads energy transfer from a long-lived donor to a nearby acceptor.

A further assay addresses FGFR1 (UP) (Homo sapiens (Human), UniProt P11362). The experiment in a line: FGFR Enzymatic Assay, FGFR1 un-phosphorylated.
[1] abbreviates: read-out: ALK2 3 μM IC50, 3 uM ATP.
Where [2] appears, read: read-out: ALK2 100 μM IC50, 100 uM ATP.
Setting [3] is: read-out: FGFR3 (UP) IC50, un-phosphorylated enzyme, ATP near or below Km.
Setting [4] is: read-out: FGFR2 (UP) IC50, un-phosphorylated enzyme, ATP near or below Km.
Where [5] appears, read: read-out: FGFR1 (UP) IC50, un-phosphorylated enzyme, ATP near or below Km.
The mark [6] stands for this setting: HeLa cells, 200 ng/ml BMP-7, Phospho SMAD1 (S463/S465) HTRF.

Read-outs that look alike come from different tables or passages of the source.

Sequence of FGFR1 (UP) (P11362 22-822): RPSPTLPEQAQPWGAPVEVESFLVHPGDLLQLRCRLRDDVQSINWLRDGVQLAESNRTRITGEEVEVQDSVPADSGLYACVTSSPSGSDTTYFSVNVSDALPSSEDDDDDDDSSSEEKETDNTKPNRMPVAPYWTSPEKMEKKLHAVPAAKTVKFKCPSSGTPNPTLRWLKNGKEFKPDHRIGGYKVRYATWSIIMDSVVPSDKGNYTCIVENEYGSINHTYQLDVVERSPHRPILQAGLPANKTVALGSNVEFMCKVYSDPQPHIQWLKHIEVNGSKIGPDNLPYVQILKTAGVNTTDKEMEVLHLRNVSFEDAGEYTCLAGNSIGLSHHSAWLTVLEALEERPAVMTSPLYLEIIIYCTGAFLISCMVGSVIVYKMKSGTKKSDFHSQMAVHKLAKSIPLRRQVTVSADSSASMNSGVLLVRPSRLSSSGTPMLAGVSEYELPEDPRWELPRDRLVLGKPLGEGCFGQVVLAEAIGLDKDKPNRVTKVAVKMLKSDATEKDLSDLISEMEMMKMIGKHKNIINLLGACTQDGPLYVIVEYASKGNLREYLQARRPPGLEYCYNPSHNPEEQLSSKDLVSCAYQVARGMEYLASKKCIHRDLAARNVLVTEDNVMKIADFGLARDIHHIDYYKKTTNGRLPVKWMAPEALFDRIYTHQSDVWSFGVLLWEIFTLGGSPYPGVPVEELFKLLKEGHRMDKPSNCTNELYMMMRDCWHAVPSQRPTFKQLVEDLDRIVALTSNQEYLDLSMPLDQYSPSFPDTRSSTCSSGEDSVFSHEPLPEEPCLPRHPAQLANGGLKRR
Sequence of FGFR3 (UP) (P22607 23-806): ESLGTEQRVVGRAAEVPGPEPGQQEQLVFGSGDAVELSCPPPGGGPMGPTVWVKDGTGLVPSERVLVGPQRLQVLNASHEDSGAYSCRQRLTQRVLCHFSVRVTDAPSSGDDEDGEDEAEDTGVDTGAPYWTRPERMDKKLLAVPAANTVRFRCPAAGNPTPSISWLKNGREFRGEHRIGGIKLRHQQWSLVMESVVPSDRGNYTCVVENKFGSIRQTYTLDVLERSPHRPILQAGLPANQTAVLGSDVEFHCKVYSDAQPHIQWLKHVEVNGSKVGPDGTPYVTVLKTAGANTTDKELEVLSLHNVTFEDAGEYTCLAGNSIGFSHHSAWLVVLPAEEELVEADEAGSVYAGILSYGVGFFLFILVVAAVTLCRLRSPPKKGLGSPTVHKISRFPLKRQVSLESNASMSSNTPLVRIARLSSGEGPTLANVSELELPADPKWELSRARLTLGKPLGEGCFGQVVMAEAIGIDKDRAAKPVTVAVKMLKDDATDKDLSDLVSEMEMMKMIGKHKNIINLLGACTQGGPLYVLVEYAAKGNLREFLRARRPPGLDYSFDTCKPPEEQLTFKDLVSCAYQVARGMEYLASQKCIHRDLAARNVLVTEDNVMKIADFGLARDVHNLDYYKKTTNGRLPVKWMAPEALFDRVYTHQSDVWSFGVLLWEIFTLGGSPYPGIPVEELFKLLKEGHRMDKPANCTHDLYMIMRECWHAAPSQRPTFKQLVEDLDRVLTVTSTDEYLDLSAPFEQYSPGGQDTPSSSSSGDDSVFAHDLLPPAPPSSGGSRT
Sequence of ALK2 (aa 147-end) (Q04771 147-509): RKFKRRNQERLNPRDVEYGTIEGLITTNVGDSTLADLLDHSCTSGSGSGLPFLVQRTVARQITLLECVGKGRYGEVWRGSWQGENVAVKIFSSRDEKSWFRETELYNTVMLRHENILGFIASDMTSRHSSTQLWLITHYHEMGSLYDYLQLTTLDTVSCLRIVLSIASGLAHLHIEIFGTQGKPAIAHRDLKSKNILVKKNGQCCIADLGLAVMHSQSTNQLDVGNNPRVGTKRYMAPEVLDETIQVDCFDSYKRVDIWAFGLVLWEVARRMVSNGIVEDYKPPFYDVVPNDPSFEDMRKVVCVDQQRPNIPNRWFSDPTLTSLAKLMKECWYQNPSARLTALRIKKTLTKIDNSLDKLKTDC
Description for FGFR1 (UP): (§1) The inhibitor potency of the exemplified compounds was determined in an enzyme discontinuous assay that measures peptide phosphorylation using FRET measurements to detect product formation. Inhibitors were serially diluted in DMSO and a volume of 0.2 μL was transferred to the wells of a 384-well plate. For the isoforms of FGFR (−1, −2, −3 wild-type and mutant isoforms, −4) including phosphorylated (P) and un-phosphorylated (UP) proteins, a 5 μL/well volume of enzyme diluted in assay buffer (50 mM HEPES, 10 mM MgCl2, 1 mM EGTA, 0.01% Tween-20, 5 mM DTT, pH 7.5) was added to the plate and pre-incubated with inhibitor for 5 to 15 minutes at ambient temperature. Appropriate controls (enzyme blank and enzyme with no inhibitor) were included on the plate. The reaction was initiated by the addition of a 5 μL/well volume containing both biotinylated [sequence] […] The plate was allowed to equilibrate for −10 minutes at ambient temperature before scanning on a PheraStar plate reader (BMG Labtech) instrument.
(§2) Either GraphPad prism or XLfit was used to analyze the data. The IC50 values were derived by fitting the data to a four parameter logistic equation producing a sigmoidal dose-response curve with a variable Hill coefficient. Prism equation: Y=Bottom+(Top−Bottom)/(1+10^((LogIC50−X)*Hill slope)); XLfit equation: Y=(A+((B−A)/(1+((X/C)^D)))) where X is the logarithm of inhibitor concentration and Y is the response.
Description for FGFR2 (UP): as §1, §2

In the case of `C[C@@H]1CN(c2ccc(-c3n[nH]c4cnc(N5[C@@H]6CC[C@H]5CN(C(=O)C5CC5)C6)nc34)cn2)CCN1` [Example 13, Cyclopropyl((1R,5S)-8-(3-(6-((R)-3-methylpiperazin-1-yl)pyridin-3-yl)-1H-pyrazolo[4,3-d]pyrimidin-5-yl)-3,8-diazabicyclo[3.2.1]octan-3-yl)methanone], the IC50 is 100 to 500 nM against FGFR3 (UP); 100 to 500 nM at ALK2 (aa 147-end) (ALK2 1 mM IC50, 1 mM ATP); under 100 nM at ALK2 (aa 147-end) (setting [1]); under 100 nM on ALK2 (aa 147-end) (setting [2]); 100 to 500 nM against FGFR2 (UP); 100 to 500 nM at ALK2. Moreover, the IC50 against FGFR1 (UP) was 500 to 2000 nM.
`C[C@@H]1CN(c2ccc(-c3n[nH]c4cnc(N5[C@@H]6CC[C@H]5CN(C(=O)N5CCCC5)C6)nc34)cn2)CCN1` [Example 14, ((1R,5S)-8-(3-(6-((R)-3-Methylpiperazin-1-yl)pyridin-3-yl)-1H-pyrazolo[4,3-d]pyrimidin-5-yl)-3,8-diazabicyclo[3.2.1]octan-3-yl)(pyrrolidin-1-yl)methanone]: the IC50 on FGFR3 (UP) (setting [3]) is over 2000 nM; on ALK2 (aa 147-end) (ALK2 1 mM IC50, 1 mM ATP) it was 100 to 500 nM; at ALK2 (aa 147-end) (setting [1]) it was under 100 nM; at ALK2 (aa 147-end) (setting [2]), under 100 nM; on FGFR2 (UP) (setting [4]) it was over 2000 nM; on ALK2, 100 to 500 nM. Also, the IC50 on FGFR1 (UP) (setting [5]) is over 2000 nM.
For the compound `C[C@@H]1CCC[C@H](C)N1c1ncc2[nH]nc(-c3ccc(N4CCN(C)CC4)cc3)c2n1` [Example 16, 5-((2R,6S)-2,6-Dimethylpiperidin-1-yl)-3-(4-(4-methylpiperazin-1-yl)phenyl)-1H-pyrazolo[4,3-d]pyrimidine], the IC50 against FGFR3 (UP) was 100 to 500 nM; against ALK2 (aa 147-end) (ALK2 1 mM IC50, 1 mM ATP), 100 to 500 nM; on ALK2 (aa 147-end) (setting [1]), under 100 nM; against FGFR2 (UP), 100 to 500 nM; at ALK2 (setting [6]), 500 to 2000 nM; at FGFR1 (UP), 100 to 500 nM.
`C[C@@H]1CN(c2ccc(-c3n[nH]c4cnc(N5CC6CCC5CN6C(=O)N5CCCC5)nc34)cn2)CCN1` (stereo partly drawn) [Example 20, (5-(3-(6-((R)-3-Methylpiperazin-1-yl)pyridin-3-yl)-1H-pyrazolo[4,3-d]pyrimidin-5-yl)-2,5-diazabicyclo[2.2.2]octan-2-yl)(pyrrolidin-1-yl)methanone]: the IC50 on FGFR3 (UP) (setting [3]) was over 2000 nM; against ALK2 (aa 147-end) (ALK2 1 mM IC50, 1 mM ATP), 100 to 500 nM; on ALK2 (aa 147-end) (setting [1]), under 100 nM; on ALK2 (aa 147-end) (setting [2]), under 100 nM; against FGFR2 (UP), 500 to 2000 nM; at ALK2 (setting [6]), 100 to 500 nM. This compound yielded an IC50 against FGFR1 (UP) of 500 to 2000 nM.
For `C[C@@H]1CN(c2ccc(-c3n[nH]c4cnc(N5C[C@@H]6C[C@H]5CN6C(=O)N5CCCC5)nc34)cn2)CCN1` [Example 21, ((1S,4S)-5-(3-(6-((R)-3-Methylpiperazin-1-yl)pyridin-3-yl)-1H-pyrazolo[4,3-d]pyrimidin-5-yl)-2,5-diazabicyclo[2.2.1]heptan-2-yl)(pyrrolidin-1-yl)methanone], the IC50 is over 2000 nM at FGFR3 (UP) (setting [3]); 100 to 500 nM against ALK2 (aa 147-end) (ALK2 1 mM IC50, 1 mM ATP); under 100 nM at ALK2 (aa 147-end) (setting [1]); under 100 nM at ALK2 (aa 147-end) (setting [2]); over 2000 nM at FGFR2 (UP) (setting [4]); 500 to 2000 nM on ALK2 (setting [6]). Further, the IC50 at FGFR1 (UP) (setting [5]) was over 2000 nM.
`COC(=O)N1C[C@@H](C)N(c2ncc3[nH]nc(-c4ccc(N5CCN(C)CC5)c(F)c4)c3n2)[C@@H](C)C1` [Example 23, Methyl (3R,5S)-4-(3-(3-fluoro-4-(4-methylpiperazin-1-yl)phenyl)-1H-pyrazolo[4,3-d]pyrimidin-5-yl)-3,5-dimethylpiperazine-1-carboxylate]: the IC50 against FGFR3 (UP) is 100 to 500 nM; against ALK2 (aa 147-end) (ALK2 1 mM IC50, 1 mM ATP) it was 100 to 500 nM; on ALK2 (aa 147-end) (setting [1]), under 100 nM; at ALK2 (aa 147-end) (setting [2]) it was under 100 nM; at FGFR2 (UP) it was 100 to 500 nM; on ALK2 (setting [6]) it was 100 to 500 nM. The IC50 on FGFR1 (UP) fell in the range of 100 to 500 nM.
